In patent publication US8691872B2 (Teva Pharmaceutical Industries Ltd., priority 2010, dated 2014):
Read-outs that look alike come from different tables or passages of the source.

What was measured:
[1] = AZILECT; cited from earlier work
[2] = Modulated DSC (MDSC), glass transition temperature (Tg); format: physicochemical; settings: Table 1
[3] = Protocol: As used herein, a “glass transition temperature (Tg)” of a solid is the temperature where the solid goes from a rigid state to a flexible state. At Tg, a polymer undergoes a phase transition from a hard, glass-like state to a flexible, rubber-like state. The Tg temperature values listed herein were determined based upon half-height of the step change or “S” shape curve seen in DSC data.
Dispersions were prepared using several techniques including rotary evaporation from solution, cryogrinding dry components and lyophilization. Samples were analyzed by modulated Differential Scanning calorimetry (DSC) to determine glass transition temperatures (Tg). A slight excess of citric acid was used in most dispersions i.e. 0.7:1 mol of rasagiline: citric acid.
In the following experiment, rasagiline base was mixed with citric acid (1:1 mol:mol) and then methanol was added to the mixture. After stirring and complete dissolution of solids, the solution was evaporated under vacuum in rotary evaporator at bath temperature 60° C.

| Compound | absolute bioavailability [1] | Tg [2] | Tg ([3]; by DSC) [°C] | Tg ([3]; cyclic DSC) |
| --- | --- | --- | --- | --- |
| C#CCN[C@@H]1CCc2ccccc21 [Rasagiline, R(+)-N-propargyl-1-aminoindan] | about 36% | – | – | – |
| C#CCN[C@@H]1CCc2ccccc21.O=C(O)CC(O)(CC(=O)O)C(=O)O [Sample 1, mono-rasagiline citrate] | – | Tg = 16 °C | ~17 | Tg = 18 °C |
